Assay results published in US20250066388A1, “1,3,4,7-TETRAHYDRO-2H-PYRROLO[3',2':5,6]PYRIDO[2,3-B][1,4]OXAZEPINE BCL-2 INHIBITORS” (AbbVie Inc., priority 2022, published 2025).

Legend:
Molt-4 cells = experiment: Cell viability counter screen (CellTiter-Glo) in Molt-4 cells; type: cell-based; settings: 24 hours, 10% Human Serum
Procedure: (§1) The acute lymphoblastic leukemia (ALL) human cell line RS4;11 (ATCC, Manassas VA) was used as the primary human cell line to assess the cellular activity of compound of the present Examples in vitro and their efficacy in vivo. […] The acute lymphoblastic leukemia cell line Molt-4, which is derived from immature T-lymphoid cells (T-ALL), was used as a counter screen assay.
(§2) 3000 Cells (0.1×10^6/mL) were seeded in each well of 384-well plate and were treated for 24 hours in a humidified chamber with 5% CO2. Cell viability was determined by CellTiter-Glo as described by the manufacturer's instructions (Promega Corporation, Madison, WI, USA).

RS4;11 cells = experiment: Cell viability assay (CellTiter-Glo) in RS4;11 cells; type: cell-based; settings: 24 hours, 10% Human Serum
Procedure: as §1, §2

Bcl-2 protein = Bcl-2 protein (Homo sapiens (Human), UniProt P10415); experiment: TR-FRET binding assay, Bcl-2; settings: F-Bak peptide probe, GST-Bcl-2
Chain of Bcl-2 protein (P10415 other isoform, or with tags, fused parts or gaps): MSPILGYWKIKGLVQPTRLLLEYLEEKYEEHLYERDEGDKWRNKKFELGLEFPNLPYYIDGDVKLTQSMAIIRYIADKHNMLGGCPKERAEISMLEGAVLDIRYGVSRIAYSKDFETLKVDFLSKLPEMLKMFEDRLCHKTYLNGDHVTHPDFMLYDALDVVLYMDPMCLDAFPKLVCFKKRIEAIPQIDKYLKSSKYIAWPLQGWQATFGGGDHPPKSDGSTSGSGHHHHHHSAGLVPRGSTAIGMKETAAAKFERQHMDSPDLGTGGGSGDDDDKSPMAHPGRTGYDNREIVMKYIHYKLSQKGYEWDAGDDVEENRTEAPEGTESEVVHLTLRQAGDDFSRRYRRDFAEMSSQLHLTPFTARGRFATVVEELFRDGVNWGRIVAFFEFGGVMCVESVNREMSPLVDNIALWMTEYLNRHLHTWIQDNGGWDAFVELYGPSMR
Procedure: (§3) Determination of the utility of compounds having Formula (I) or Formula (II) as binders to and inhibitors of anti-apoptotic Bcl-2 proteins was performed using the Time Resolved-Fluorescence Resonance Energy Transfer (TR-FRET) Assay. Tb-anti-GST antibody was purchased from Invitrogen (Catalog No. PV4216).
A Bcl-2 human encoding sequence was cloned into a pET41A vector (Novagen). The protein was expressed with E. coli. BL21(DE3)-T1R strain in OETB autoinduction medium at 30° C. for 25 hours. The cell pellets were resuspended in lysis buffer (50 mM Tris, 140 mM NaCl, 1 mM DTT, 10% Glycerol, 2 mM MgCl2, pH 7.3) and lysed with Microfluidizer. The Bcl-2 protein in clarified cell-lysate was purified with affinity chromatography (GST and Ni-NTA). The eluate was loaded onto a Superdex 75 column and further purified with a Q Sepharose column. The protein was purified on a phenyl hydrophobic interaction column and dialyzed in the storage buffer (50 mM Tris, 50 mM NaCl, 2 mM DTT, pH 7.5) and stored at −80° C.
(§4) […] of a protein (Bcl-2 or Bcl-xL)/probe/antibody mixture pre-equilibrated for one hour in assay buffer was added to each well at final concentrations listed in Table 6 below.
(§5) The samples were then mixed on a shaker for 1 minute and equilibrated for an additional 3 hours at room temperature. For each assay plate, a probe/antibody and protein/antibody/probe mixture were included as a negative and a positive control, respectively. Fluorescence was measured on the Envision (Perkin Elmer) using a 340/35 nm excitation filter and 520/525 (F-Bak) and 495/510 nm (Tb-labeled anti-GST antibody) emission filters. Inhibition constants (Ki) were determined using Wang's equation (Wang FEBS Lett. 1995, 360, 111-114). The TR-FRET assay can be performed in the presence of varying concentrations of human serum (HS) to determine apparent half maximal inhibitory concentration (IC50) after HS protein binding.
(§6) Inhibition constants were determined using Wang's equation (Wang FEBS Lett. 1995, 360:111-4).

Bcl-xL protein = Bcl-xL protein (Homo sapiens (Human), UniProt Q07817); experiment: TR-FRET binding assay, Bcl-xL; settings: F-Bak peptide probe
Chain of Bcl-xL protein (Q07817 other isoform, or with tags, fused parts or gaps): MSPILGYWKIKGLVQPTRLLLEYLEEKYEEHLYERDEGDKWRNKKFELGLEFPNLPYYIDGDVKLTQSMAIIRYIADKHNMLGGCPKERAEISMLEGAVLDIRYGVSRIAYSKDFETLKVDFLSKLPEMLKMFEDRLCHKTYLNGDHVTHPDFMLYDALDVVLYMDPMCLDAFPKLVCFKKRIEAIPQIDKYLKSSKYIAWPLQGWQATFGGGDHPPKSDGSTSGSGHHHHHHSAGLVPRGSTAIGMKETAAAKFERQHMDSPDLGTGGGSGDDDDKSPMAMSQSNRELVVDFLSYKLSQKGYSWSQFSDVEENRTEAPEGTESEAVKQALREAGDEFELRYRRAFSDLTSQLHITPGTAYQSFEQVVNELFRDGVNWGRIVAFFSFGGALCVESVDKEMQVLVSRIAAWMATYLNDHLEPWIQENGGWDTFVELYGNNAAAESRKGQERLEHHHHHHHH
Procedure: as §3
A human Bcl-xL encoding sequence was cloned into a pET41A vector. The protein was expressed with E. coli. BL21(DE3)-T1R strain in OETB autoinduction medium at 30° C. for 25 hours. The cell pellets were resuspended in lysis buffer (50 mM Tris, 140 mM NaCl, 1 mM DTT, 10% Glycerol, 0.1% Triton X-100, pH 7.5) and lysed with Microfluidizer. The Bcl-xL protein in clarified cell-lysate was purified with GST affinity chromatography. The eluate was dialyzed in the storage buffer (1×PBS, 10% Glycerol, 2 mM DTT, 1 mM Sodium Azide, pH 7.4) and stored at −80° C.
as §4, §5, §6

SMILES	EC50 (Molt-4 cells) [nM]	EC50 (RS4;11 cells) [nM]	Ki (Bcl-2 protein) [nM]	Ki (Bcl-xL protein) [nM]
CC1(C)CC(c2ccc(Cl)cc2)=C2CN3CCN(c4ccc(C(=O)NS(=O)(=O)c5ccc(NCC6CCCCO6)c([N+](=O)[O-])c5)c(N5CCCOc6nc7[nH]ccc7cc65)c4)C[C@H]3COCCCO[C@@H]2C1 (stereo partly drawn) [Example 45, 4-((4aS,10aR)-14-(4-chlorophenyl)-12,12-dimethyl-1,2,4a,5,8,9,10a,11,13,15-decahydro-7H,12H-benzo[f]pyrazino[2,1-c][1,8]dioxa[4]azacycloundecin-3(4H)-yl)-2-(3,4-dihydro-2H-pyrrolo[3′,2′:5,6]pyrido[2,3-b][1,4]oxazepin-1(7H)-yl)-N-((3-nitro-4-(((tetrahydro-2H-pyran-2-yl)methyl)amino)phenyl)sulfonyl)benzamide]	> 10000	10.7		
CO[C@H]1CC[C@H](COc2ccc(S(=O)(=O)NC(=O)c3ccc(N4CCN5CC6=C(c7ccc(Cl)cc7)CC(C)(C)C[C@H]6OCCCOC[C@@H]5C4)cc3N3CCCOc4nc5[nH]ccc5cc43)cc2Cl)OC1 [Example 40, N-((3-chloro-4-(((2R,5S)-5-methoxytetrahydro-2H-pyran-2-yl)methoxy)phenyl)sulfonyl)-4-((4aS,10aR)-14-(4-chlorophenyl)-12,12-dimethyl-1,2,4a,5,8,9,10a,11,13,15-decahydro-7H,12H-benzo[f]pyrazino[2,1-c][1,8]dioxa[4]azacycloundecin-3(4H)-yl)-2-(3,4-dihydro-2H-pyrrolo[3′,2′:5,6]pyrido[2,3-b][1,4]oxazepin-1(7H)-yl)benzamide]	> 10000		0.349	199
CO[C@H]1CC[C@H](CNc2ccc(S(=O)(=O)NC(=O)c3ccc(N4CCN5CC6=C(c7ccc(Cl)cc7)CC(C)(C)C[C@H]6OCCCOC[C@@H]5C4)cc3N3CCCOc4nc5[nH]ccc5cc43)cc2Cl)OC1 [Example 34, N-((3-chloro-4-((((2R,5S)-5-methoxytetrahydro-2H-pyran-2-yl)methyl)amino)phenyl)sulfonyl)-4-((4aS,10aR)-14-(4-chlorophenyl)-12,12-dimethyl-1,2,4a,5,8,9,10a,11,13,15-decahydro-7H,12H-benzo[f]pyrazino[2,1-c][1,8]dioxa[4]azacycloundecin-3(4H)-yl)-2-(3,4-dihydro-2H-pyrrolo[3′,2′:5,6]pyrido[2,3-b][1,4]oxazepin-1(7H)-yl)benzamide]	> 10000		0.667	446
COC1(CNc2ccc(S(=O)(=O)NC(=O)c3ccc(N4CCN5CC6=C(c7ccc(Cl)cc7)CC(C)(C)C[C@H]6OCCCOC[C@@H]5C4)cc3N3CCCOc4nc5[nH]ccc5cc43)cc2[N+](=O)[O-])CCOCC1 [Example 26, 4-((4aS,10aR)-14-(4-chlorophenyl)-12,12-dimethyl-1,2,4a,5,8,9,10a,11,13,15-decahydro-7H,12H-benzo[f]pyrazino[2,1-c][1,8]dioxa[4]azacycloundecin-3(4H)-yl)-2-(3,4-dihydro-2H-pyrrolo[3′,2′:5,6]pyrido[2,3-b][1,4]oxazepin-1(7H)-yl)-N-((4-(((4-methoxytetrahydro-2H-pyran-4-yl)methyl)amino)-3-nitrophenyl)sulfonyl)benzamide]	> 10000		2.09	40.3
CC1(C)CC(c2ccc(Cl)cc2)=C2CN3CCN(c4ccc(C(=O)NS(=O)(=O)c5cnc(OC[C@H]6CC[C@@](C)(O)CC6)c(Cl)c5)c(N5CCCOc6nc7[nH]ccc7cc65)c4)C[C@H]3COCCCO[C@@H]2C1 [Example 50, N-((5-chloro-6-(((1s,4s)-4-hydroxy-4-methylcyclohexyl)methoxy)pyridin-3-yl)sulfonyl)-4-((4aS,10aR)-14-(4-chlorophenyl)-12,12-dimethyl-1,2,4a,5,8,9,10a,11,13,15-decahydro-7H,12H-benzo[f]pyrazino[2,1-c][1,8]dioxa[4]azacycloundecin-3(4H)-yl)-2-(3,4-dihydro-2H-pyrrolo[3′,2′:5,6]pyrido[2,3-b][1,4]oxazepin-1(7H)-yl)benzamide]	> 10000			
COC[C@]1(F)C[C@H](CNc2ccc(S(=O)(=O)NC(=O)c3ccc(N4CCN5CC6=C(c7ccc(Cl)cc7)CC(C)(C)C[C@H]6OCCCOC[C@@H]5C4)cc3N3CCCOc4nc5[nH]ccc5cc43)cc2[N+](=O)[O-])C1 [Example 47, 4-((4aS,10aR)-14-(4-chlorophenyl)-12,12-dimethyl-1,2,4a,5,8,9,10a,11,13,15-decahydro-7H,12H-benzo[f]pyrazino[2,1-c][1,8]dioxa[4]azacycloundecin-3(4H)-yl)-2-(3,4-dihydro-2H-pyrrolo[3′,2′:5,6]pyrido[2,3-b][1,4]oxazepin-1(7H)-yl)-N-((4-((((1r,3r)-3-fluoro-3-(methoxymethyl)cyclobutyl)methyl)amino)-3-nitrophenyl)sulfonyl)benzamide]	> 10000	10.9		
CO[C@@H]1CC[C@@H](COc2ccc(S(=O)(=O)NC(=O)c3ccc(N4CCN5CC6=C(c7ccc(Cl)cc7)CC(C)(C)C[C@H]6OCCCOC[C@@H]5C4)cc3N3CCCOc4nc5[nH]ccc5cc43)cc2[N+](=O)[O-])OC1 [Example 51, 4-((4aS,10aR)-14-(4-chlorophenyl)-12,12-dimethyl-1,2,4a,5,8,9,10a,11,13,15-decahydro-7H,12H-benzo[f]pyrazino[2,1-c][1,8]dioxa[4]azacycloundecin-3(4H)-yl)-2-(3,4-dihydro-2H-pyrrolo[3′,2′:5,6]pyrido[2,3-b][1,4]oxazepin-1(7H)-yl)-N-((4-(((2S,5R)-5-methoxytetrahydro-2H-pyran-2-yl)methoxy)-3-nitrophenyl)sulfonyl)benzamide]	> 10000	9.6		
CC1(C)CC(c2ccc(Cl)cc2)=C2CN3CCN(c4ccc(C(=O)NS(=O)(=O)c5ccc(OC[C@H]6CC[C@](C)(O)CC6)c(Cl)c5)c(N5CCCOc6nc7[nH]ccc7cc65)c4)C[C@H]3COCCCO[C@@H]2C1 [Example 43, N-((3-chloro-4-(((1r,4r)-4-hydroxy-4-methylcyclohexyl)methoxy)phenyl)sulfonyl)-4-((4aS,10aR)-14-(4-chlorophenyl)-12,12-dimethyl-1,2,4a,5,8,9,10a,11,13,15-decahydro-7H,12H-benzo[f]pyrazino[2,1-c][1,8]dioxa[4]azacycloundecin-3(4H)-yl)-2-(3,4-dihydro-2H-pyrrolo[3′,2′:5,6]pyrido[2,3-b][1,4]oxazepin-1(7H)-yl)benzamide]	> 10000			
C[C@H]1CCC(CNc2ccc(S(=O)(=O)NC(=O)c3ccc(N4CCN5CC6=C(c7ccc(Cl)cc7)CC(C)(C)C[C@H]6OCCCOCC5C4)cc3N3CCCOc4nc5[nH]ccc5cc43)cc2[N+](=O)[O-])OC1 (stereo partly drawn) [Example 23, 4-((4aS,10aR)-14-(4-chlorophenyl)-12,12-dimethyl-1,2,4a,5,8,9,10a,11,13,15-decahydro-7H,12H-benzo[f]pyrazino[2,1-c][1,8]dioxa[4]azacycloundecin-3(4H)-yl)-2-(3,4-dihydro-2H-pyrrolo[3′,2′:5,6]pyrido[2,3-b][1,4]oxazepin-1(7H)-yl)-N-((4-((((2R,5S)-5-methyltetrahydro-2H-pyran-2-yl)methyl)amino)-3-nitrophenyl)sulfonyl)benzamide]	> 10000		0.634	29.7
